Experimental data: patent US20250270200A1, “CTPS1 INHIBITORS AND USES THEREOF” (Nimbus Clotho, Inc., priority 2022, published 2025)

Target: T1, human CTPS1 (Homo sapiens, UniProt P17812)
T1 sequence (P17812 1-591): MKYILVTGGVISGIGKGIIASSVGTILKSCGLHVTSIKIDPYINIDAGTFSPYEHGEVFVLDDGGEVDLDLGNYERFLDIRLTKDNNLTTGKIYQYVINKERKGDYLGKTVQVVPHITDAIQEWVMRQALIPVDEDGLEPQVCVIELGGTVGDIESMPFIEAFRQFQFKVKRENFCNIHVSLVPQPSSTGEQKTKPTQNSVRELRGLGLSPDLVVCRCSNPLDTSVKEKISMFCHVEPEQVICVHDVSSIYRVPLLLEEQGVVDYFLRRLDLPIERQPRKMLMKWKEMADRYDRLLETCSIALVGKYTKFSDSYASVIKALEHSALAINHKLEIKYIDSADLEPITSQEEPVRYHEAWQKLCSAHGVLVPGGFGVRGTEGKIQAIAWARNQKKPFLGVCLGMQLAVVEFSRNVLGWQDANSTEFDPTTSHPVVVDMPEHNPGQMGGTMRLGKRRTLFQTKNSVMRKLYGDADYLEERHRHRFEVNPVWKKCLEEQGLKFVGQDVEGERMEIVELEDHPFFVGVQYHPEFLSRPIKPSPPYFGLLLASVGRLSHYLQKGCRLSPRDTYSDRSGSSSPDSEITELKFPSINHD
Experiment: ADP-Glo assay, human CTPS1 enzyme inhibition
Type: biochemical
Details: wild-type human CTPS1, 25 nM enzyme; ADP-Glo; read-out: ADP-Glo_WT_hCTPS1—25 nM_IC50 (IC50)
Procedure: The enzyme inhibitory activities of the compounds of the invention against the target of interest were determined using the ADP-Glo™ assay (Promega). Assays for human CTPS1 and CTPS2 were performed in 1× assay buffer containing 50 mM HEPES (Life Technologies), 10 mM Mg2+, 5 mM KCl, 2 mM DTT, 0.01% F-127, pH to 7.4 accordingly. All reagents are from Sigma-Aldrich, unless specified otherwise. Purified human full length active N-terminal FLAG-8×HIS-TEV tagged CTPS1 (UniprotKB—P17812, […]-CTPS1[1-591]) was generated using a mammalian expression system at Viva Biotech (Shanghai) Ltd.
Purified human CTPS1 protein was prepared in 1× assay buffer to the final working protein concentration required for the reaction. A 2.5 μL volume per well of human CTPS 1 protein was mixed with 0.1 μL per well of test compound dissolved in DMSO and pre-incubated at 25 degrees C. for 10 minutes. 2.5 μL per well of the reaction precursors ATP (UltraPure ATP from ADP-Glo™ kit) and UTP were then added and pre-incubated for an additional 10 minutes at 25 degrees C. Finally, the reaction was initiated by the addition of 5 μL of the reaction precursors L-glutamine and GTP. The final concentration of all reaction components in the assay: ATP (120 μM), UTP (160 μM), GTP (60 μM), L-Glutamine (100 μM), DMSO (1%), hCTPS1 (25 nM). This mixture was incubated for an appropriate amount of time within the determined linear phase of the reaction at 25 degrees C. under sealed plate conditions with constant agitation at 500 revolutions per minute (rpm). ADP-Glo™ reagent was added for 60 minutes (10 μL per well) and subsequently ADP-Glo™ development reagent was added for 60 minutes (20 μL per well) prior to signal detection in a microplate reader (Envision Multilabel Reader, Perkin Elmer). Following each reagent addition over the course of the assay, assay plates were pulse centrifuged for 1 minute at 1000 rpm.
The enzyme converts ATP to ADP and the ADP-Glo™ reagent subsequently depletes any remaining ATP in the reaction system. The ADP-Glo™ detection reagents converts the ADP that has been produced by the enzyme back into ATP, which is then utilized as a substrate together with luciferin for the enzyme luciferase. Light generated by this chemiluminescent reaction is quantified and is directly proportional to the amount of ADP produced by the CTPS1 enzyme reaction. […]

Structure (SMILES): COCC[C@H](NC(=O)c1ncc(-c2cnn3ccc(Cl)cc23)s1)c1cc(NS(=O)(=O)C2CC2)ccn1 (single isomer, unassigned) [I-1]
- IC50: 5 to 25 nM

Structure (SMILES): COCC[C@@H](NC(=O)c1ncc(-c2cnn3ccc(Cl)cc23)s1)c1cc(NS(=O)(=O)C2CC2)ccn1 (single isomer, unassigned) [I-2]
- IC50: 5 to 25 nM

Structure (SMILES): COC[C@H](NC(=O)c1ncc(-c2cnn3ccc(Cl)cc23)s1)c1cc(NS(=O)(=O)C2CC2)ccn1 (single isomer, unassigned) [I-3]
- IC50: 5 to 25 nM

Structure (SMILES): COC[C@@H](NC(=O)c1ncc(-c2cnn3ccc(Cl)cc23)s1)c1cc(NS(=O)(=O)C2CC2)ccn1 (single isomer, unassigned) [I-4]
- IC50: 5 to 25 nM

Structure (SMILES): CCOc1cncc(-c2ccc(C(=O)N[C@@H](CCN3CCCCC3)c3cc(NS(=O)(=O)C4CC4)ccn3)c(F)c2F)n1 (single isomer, unassigned) [I-6]
- IC50: > 100 nM

Structure (SMILES): CCOc1cncc(-c2ccc(C(=O)N[C@H](CCN3CCCCC3)c3cc(NS(=O)(=O)C4CC4)ccn3)c(F)c2F)n1 (single isomer, unassigned) [I-7]
- IC50: 5 to 25 nM

Structure (SMILES): O=C(N[C@@H](CCN1CCCCC1)c1cc(NS(=O)(=O)C2CC2)ccn1)c1ncc(-c2cnn3ccc(Cl)cc23)s1 (single isomer, unassigned) [I-9]
- IC50: > 100 nM

Structure (SMILES): O=C(N[C@H](CCN1CCCCC1)c1cc(NS(=O)(=O)C2CC2)ccn1)c1ncc(-c2cnn3ccc(Cl)cc23)s1 (single isomer, unassigned) [I-10]
- IC50: 5 to 25 nM

Structure (SMILES): CCOc1cncc(-c2cnc(C(=O)N[C@@H](COC)c3nccc(NS(=O)(=O)C4CC4)c3F)s2)n1 (single isomer, unassigned) [I-11]
- IC50: 5 to 25 nM

Structure (SMILES): CCOc1cncc(-c2cnc(C(=O)N[C@H](COC)c3nccc(NS(=O)(=O)C4CC4)c3F)s2)n1 (single isomer, unassigned) [I-12]
- IC50: 5 to 25 nM

Structure (SMILES): CCOc1cncc(-c2cnc(C(=O)N[C@@H](CCN(C)C3CCCCC3)c3cc(NS(=O)(=O)C4CC4)ccn3)s2)n1 (single isomer, unassigned) [I-13]
- IC50: 50 to 100 nM

Structure (SMILES): CCOc1cncc(-c2cnc(C(=O)N[C@H](CCN(C)C3CCCCC3)c3cc(NS(=O)(=O)C4CC4)ccn3)s2)n1 (single isomer, unassigned) [I-14]
- IC50: 5 to 25 nM

Structure (SMILES): CCOc1cncc(-c2cnc(C(=O)N[C@@H](CCN3CCC(F)CC3)c3cc(NS(=O)(=O)C4CC4)ccn3)s2)n1 (single isomer, unassigned) [I-15]
- IC50: 50 to 100 nM

Structure (SMILES): CCOc1cncc(-c2cnc(C(=O)N[C@H](CCN3CCC(F)CC3)c3cc(NS(=O)(=O)C4CC4)ccn3)s2)n1 (single isomer, unassigned) [I-16]
- IC50: 5 to 25 nM

Structure (SMILES): CCOc1cncc(-c2cnc(C(=O)N[C@H](CCN3CCCC4(CC4)C3)c3cc(NS(=O)(=O)C4CC4)ccn3)s2)n1 (single isomer, unassigned) [I-17]
- IC50: ≤ 5 nM

Structure (SMILES): CCOc1cncc(-c2cnc(C(=O)N[C@@H](CCN3CCCC4(CC4)C3)c3cc(NS(=O)(=O)C4CC4)ccn3)s2)n1 (single isomer, unassigned) [I-18]
- IC50: > 100 nM

Structure (SMILES): O=C(N[C@H](c1cc(NS(=O)(=O)C2CC2)ccn1)[C@H]1CCOC1)c1ncc(-c2cnn3ccc(Cl)cc23)s1 (single isomer, unassigned) [I-22]
- IC50: 5 to 25 nM

Structure (SMILES): O=C(N[C@H](c1cc(NS(=O)(=O)C2CC2)ccn1)[C@@H]1CCOC1)c1ncc(-c2cnn3ccc(Cl)cc23)s1 (single isomer, unassigned) [I-23]
- IC50: 5 to 25 nM

Structure (SMILES): O=C(N[C@@H](c1cc(NS(=O)(=O)C2CC2)ccn1)[C@@H]1CCOC1)c1ncc(-c2cnn3ccc(Cl)cc23)s1 (single isomer, unassigned) [I-24]
- IC50: 5 to 25 nM

Structure (SMILES): O=C(N[C@@H](c1cc(NS(=O)(=O)C2CC2)ccn1)[C@H]1CCOC1)c1ncc(-c2cnn3ccc(Cl)cc23)s1 (single isomer, unassigned) [I-25]
- IC50: 5 to 25 nM

Structure (SMILES): CCOc1cncc(-c2cnc(C(=O)N[C@@H](C[C@@H]3CCCCN3C(C)C)c3cc(NS(=O)(=O)C4CC4)ccn3)s2)n1 (single isomer, unassigned) [I-26]
- IC50: > 100 nM

Structure (SMILES): CCOc1cncc(-c2cnc(C(=O)N[C@H](C[C@H]3CCCCN3C(C)C)c3cc(NS(=O)(=O)C4CC4)ccn3)s2)n1 (single isomer, unassigned) [I-27]
- IC50: 5 to 25 nM

Structure (SMILES): CCOc1cncc(-c2cnc(C(=O)N[C@@H](C[C@H]3CCCCN3C(C)C)c3cc(NS(=O)(=O)C4CC4)ccn3)s2)n1 (single isomer, unassigned) [I-28]
- IC50: ≤ 5 nM

Structure (SMILES): CCOc1cncc(-c2cnc(C(=O)N[C@H](C[C@@H]3CCCCN3C(C)C)c3cc(NS(=O)(=O)C4CC4)ccn3)s2)n1 (single isomer, unassigned) [I-29]
- IC50: > 100 nM

Structure (SMILES): CCOc1cncc(-c2cnc(C(=O)N[C@@H](CN3C[C@H]4COC[C@H]4C3)c3cc(NS(=O)(=O)C4CC4)ccn3)s2)n1 (single isomer, unassigned) [I-30]
- IC50: 25 to 50 nM

Structure (SMILES): CCOc1cncc(-c2cnc(C(=O)N[C@H](CN3C[C@H]4COC[C@H]4C3)c3cc(NS(=O)(=O)C4CC4)ccn3)s2)n1 (single isomer, unassigned) [I-31]
- IC50: 5 to 25 nM

Structure (SMILES): CCOc1cncc(-c2cnc(C(=O)N[C@@H](CN3CCOC[C@H]3C)c3cc(NS(=O)(=O)C4CC4)ccn3)s2)n1 (single isomer, unassigned) [I-32]
- IC50: 25 to 50 nM

Structure (SMILES): CCOc1cncc(-c2cnc(C(=O)N[C@H](CN3CCOC[C@H]3C)c3cc(NS(=O)(=O)C4CC4)ccn3)s2)n1 (single isomer, unassigned) [I-33]
- IC50: 5 to 25 nM

Structure (SMILES): CCOc1cncc(-c2cnc(C(=O)N[C@@H](CN3CCOC[C@@H]3C)c3cc(NS(=O)(=O)C4CC4)ccn3)s2)n1 (single isomer, unassigned) [I-34]
- IC50: 5 to 25 nM

Structure (SMILES): CCOc1cncc(-c2cnc(C(=O)N[C@H](CN3CCOC[C@@H]3C)c3cc(NS(=O)(=O)C4CC4)ccn3)s2)n1 (single isomer, unassigned) [I-35]
- IC50: ≤ 5 nM

Structure (SMILES): CCOc1cncc(-c2cnc(C(=O)N[C@@H](CN3[C@@H]4CC[C@H]3COC4)c3cc(NS(=O)(=O)C4CC4)ccn3)s2)n1 (single isomer, unassigned) [I-36]
- IC50: 50 to 100 nM

Structure (SMILES): CCOc1cncc(-c2cnc(C(=O)N[C@H](CN3[C@@H]4CC[C@H]3COC4)c3cc(NS(=O)(=O)C4CC4)ccn3)s2)n1 (single isomer, unassigned) [I-37]
- IC50: 5 to 25 nM

Structure (SMILES): CCOc1cncc(-c2cnc(C(=O)N[C@@H](CN3CCCC3)c3cccc(NS(=O)(=O)C(F)F)c3)s2)n1 (single isomer, unassigned) [I-38]
- IC50: 5 to 25 nM

Structure (SMILES): CCOc1cncc(-c2cnc(C(=O)N[C@H](CN3CCCC3)c3cccc(NS(=O)(=O)C(F)F)c3)s2)n1 (single isomer, unassigned) [I-39]
- IC50: 25 to 50 nM

Structure (SMILES): CCOc1cncc(-c2cnc(C(=O)N[C@H](CN3CCN(C4CC4)CC3)c3cccc(NS(=O)(=O)C(F)F)c3)s2)n1 (single isomer, unassigned) [I-40]
- IC50: 25 to 50 nM

Structure (SMILES): CCOc1cncc(-c2cnc(C(=O)N[C@@H](CN3CCN(C4CC4)CC3)c3cccc(NS(=O)(=O)C(F)F)c3)s2)n1 (single isomer, unassigned) [I-41]
- IC50: 5 to 25 nM

Structure (SMILES): CCOc1cncc(-c2cnc(C(=O)N[C@H](c3cc(NS(=O)(=O)C4CC4)ccn3)C(C)(C)CN(C)C)s2)n1 (single isomer, unassigned) [I-42]
- IC50: 50 to 100 nM

Structure (SMILES): CCOc1cncc(-c2cnc(C(=O)N[C@H](c3cc(NS(=O)(=O)C4CC4)ccn3)[C@H](C)OC)s2)n1 (single isomer, unassigned) [I-47]
- IC50: 5 to 25 nM

Structure (SMILES): CCOc1cncc(-c2cnc(C(=O)N[C@@]3(c4cc(NS(=O)(=O)C5CC5)ccn4)CCOC3)s2)n1 (single isomer, unassigned) [I-71]
- IC50: 5 to 25 nM

Structure (SMILES): CCOc1cncc(-c2cnc(C(=O)N[C@]3(c4cc(NS(=O)(=O)C5CC5)ccn4)CCOC3)s2)n1 (single isomer, unassigned) [I-72]
- IC50: 5 to 25 nM
